Earlier results, collected in US20100178285A1, “SYNERGISTIC ANTHELMINTIC COMPOSITION” (priority 2006, published 2010).
Like-named read-outs stand apart in the source and are kept apart here.

Key:
[1] = system: gastrointestinal nematodes of sheep and goats
[2] = system: gastrointestinal nematodes of sheep and goats; conditions: first farm, ten days after treatment
[3] = system: mixed species of gastrointestinal nematodes; conditions: sheep, 7.5 mg/kg
[4] = sheep
[5] = system: Heligmosomoides polygyrus; conditions: in vitro, H. polygyrus
[6] = second farm, 10 days after treatment

Row | SMILES | reduction in faecal egg count [1, 6] | reduction in faecal egg count [2] | reduction in faecal egg count ([1]; first farm, ten days after treatment) | reduction in EPG [3] | free T3 and free T4 levels ([4]; either group (7.5 and 40 mg kg(−1))) | inorganic phosphate levels ([4]; groups 1 and 2) | serum albumin level ([4]; groups 1 and 2) | serum cholesterol level ([4]; groups 1 and 2) | triiodothyronine (T3) and thyroxin (T4) levels vs control ([4]; oral 7.5 mg kg(−1) (group 1)) | levels of total T3 ([4]; oral 40 mg kg(−1) (group 2)) | levels of total T4 ([4]; oral 40 mg kg(−1) (group 2)) | alanine aminotransferase (ALT) activity ([4]; oral 7.5 and 40 mg kg(−1)) | aspartate aminotransferase (AST) activity ([4]; oral 7.5 and 40 mg kg(−1)) | creatinine kinase (CK) activity ([4]; oral 7.5 and 40 mg kg(−1)) | lactate dehydrogenase (LDH) activity ([4]; oral 7.5 and 40 mg kg(−1)) | serum alkaline phosphatase (ALP) activities ([4]; oral 7.5 and 40 mg kg(−1)) | effect of inhibitor on efficacy of the cysteine proteinases [5]
1 | CCCSc1ccc2nc(NC(=O)OC)[nH]c2c1 [albendazole] | 59.4% |  |  |  |  |  |  |  |  |  |  |  |  |  |  |  | 
2 | c1ccc([C@H]2CN3CCSC3=N2)cc1 [levamisole] | 99.4% | 97% | 98% | 99.2% | not changed | decreased | increased | increased | no significant changes | increase | decreased | increased significantly | increased significantly | increased significantly | increased significantly | decreased | 
3 | CC(C)C[C@H](NC(=O)[C@H]1O[C@@H]1C(=O)O)C(=O)NCCCCN=C(N)N [Group E-64, E-64] |  |  |  |  |  |  |  |  |  |  |  |  |  |  |  |  | completely inhibited
